Measured values published in paper PMC5634595, “Properties of halogenated and sulfonated porphyrins relevant for the selection of photosensitizers in anticancer and antimicrobial therapies” (PLoS ONE, 2017).

Columns and labels:
[1] = UV/Vis absorption spectra, molar absorption coefficients; type: physicochemical; conditions: EtOH
Description: All commercial chemicals and reagents were of analytical grade and were purchased from Sigma-Aldrich. UV/Vis absorption spectra were recorded in a Hewlett Packard HP8453 spectrophotometer. Solutions containing samples of photosensitizers were dissolved in the selected solvent in quartz cuvettes. Using measured absorbance for various concentrations of porphyrin in ethanol, the molar absorption coefficients were determined from Beer’s law.

[2] = Fluorescence emission and fluorescence quantum yield (comparative method); type: physicochemical; conditions: EtOH, TPP as standard
Description: (§1) Fluorescence emission spectra were recorded from 550 nm to 750 nm with excitation at Soret band (λ≈420 nm). The excitation and emission slits were both set to 8 nm and scanning speed to 50 nm/min. Fluorescence spectra were recorded with a Perkin Elmer Fluorescence Spectrometer LS 55. Determination of fluorescence quantum yields: ΦF of studied photosensitizers was determined using the comparative method according to the equation: ΦF=ΦFStd⋅FAStdn^2/FStdAnStd2, (1) where F and FStd are the areas under the fluorescence emission curves of the sample and the standard, A and AStd are the absorbance of the sample and the standard and n are the refractive indices of the solvent used for the sample and the standard, respectively. Commercially available tetraphenylporphyrin TPP (Std) (ΦF = 0.10 in toluene) was employed as the standard. The absorbance of the solutions at the excitation wavelength was in the range of 0.02. Singlet oxygen quantum yields were determined based on the relative phosphorescence emissions of singlet oxygen generated by a reference and by each one of the porphyrins, using a method described elsewhere. Briefly, a modified Applied Photophysics LKS.60 flash photolysis spectrometer with a Hamamatsu NIR photomultiplier for detection and HP Infinium (500 MHz, 1GSas^-1) or Tektronix DPO 7254 (2.5 GHz, 40GSas^-1) oscilloscopes were used. The adaptation of this spectrometer allowed for the detection of singlet oxygen phosphorescence at room temperature. This emission was detected using a Hamamatsu R5509–42 photomultiplier, cooled to 193 K in a liquid nitrogen chamber. […] The modification of the spectrometer for time-resolved singlet oxygen phosphorescence measurements involved the interposition of a Melles Griot cold mirror (03MCS005), which reflects more than 99% of the incident light in the 400–700 nm range, and of a Scotch RG665 filter. A 600 line diffraction grating was mounted in place of a standard one. […] Solutions of photosensitizers were prepared with matched absorbances close to 0.2 at 355 nm. […]

[3] = Singlet oxygen quantum yield by phosphorescence at 1270 nm; type: physicochemical; conditions: EtOH, phenalenone as reference
Description: as §1

[4] = n-Octanol/PBS partition coefficient, shake-flask; type: physicochemical; conditions: modified shake-flask
Description: The n-octanol/PBS partition coefficients were measured following shake-flask method with minor modifications. The photosensitizers were dissolved in n-octanol previously saturated with a solution of PBS. The same volume of PBS saturated with n-octanol was added and mixed on a vortex device and then the phases were separated by centrifugation. Next, the PBS/n-octanol phase was taken and diluted to obtain 0.5% of PBS/n-octanol content in the final solution. This solution was left into the ultrasonic bath. The fluorescence of each solution was measured using Fluorescence Spectrometer LS 55 (Perkin Elmer) and compared with calibration curve to obtain the concentration of the photosensitizer. Partition coefficients were calculated from the ratio coct/cPBS, where coct and cPBS are the concentrations of the porphyrin derivatives in the n-octanol and in the PBS.

HSA = HSA (Homo sapiens, UniProt P02768); assay: Binding to HSA by fluorescence quenching (Stern-Volmer, Scatchard)
HSA, sequence (P02768 25-609): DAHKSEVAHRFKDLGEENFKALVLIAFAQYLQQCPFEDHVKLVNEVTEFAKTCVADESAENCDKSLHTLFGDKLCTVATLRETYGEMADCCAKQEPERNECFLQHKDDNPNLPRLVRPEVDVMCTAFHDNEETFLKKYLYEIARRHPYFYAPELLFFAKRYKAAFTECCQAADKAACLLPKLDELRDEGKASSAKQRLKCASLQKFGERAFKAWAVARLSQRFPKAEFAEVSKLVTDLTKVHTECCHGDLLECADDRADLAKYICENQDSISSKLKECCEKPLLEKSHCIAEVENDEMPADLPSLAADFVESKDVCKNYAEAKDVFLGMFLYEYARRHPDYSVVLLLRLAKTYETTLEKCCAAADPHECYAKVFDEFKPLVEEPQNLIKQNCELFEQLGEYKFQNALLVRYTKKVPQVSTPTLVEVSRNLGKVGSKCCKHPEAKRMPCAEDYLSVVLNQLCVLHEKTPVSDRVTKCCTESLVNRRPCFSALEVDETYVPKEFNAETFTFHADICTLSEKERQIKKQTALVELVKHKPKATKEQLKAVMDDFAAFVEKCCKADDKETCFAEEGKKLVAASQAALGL
Description: The binding of the PS to HSA was studied by spectrofluorometry at room temperature. An aqueous (phosphate buffer saline, PBS) solution of HSA was titrated with varying concentrations of the respective porphyrin solutions. HSA was excited at 295 nm and fluorescence was recorded between 300 nm and 400 nm. The systematic lowering of HSA fluorescence with increasing photosensitizer concentrations was noted and used in the determination of the binding constants and the number of binding sites on HSA according to Scatchard equation. The changes in HSA fluorescence intensity were related to porphyrin concentrations by the Stern-Volmer relationship. The binding constant (Kb) of PS to lipoproteins was also determined using the spectroscopic titration method. The sets of steady-state emission spectra of PBS solutions with different concentrations of HDL and LDL, to which the porphyrin (5 μM) was added were measured. The fluorescence intensity of the dye increased upon its partitioning into the lipoproteins. To obtain Kb, F versus [L] data were plotted and fitted to by a nonlinear regression routine.

[5] = Dynamic light scattering and zeta potential of PS-Pluronic L121 micelles; type: physicochemical; conditions: Pluronic L121-based formulation, DLS, homogeneous distribution
Description: Micellar formulations with Pluronic […] were prepared according to a method recently described. The micelles were characterized by Dynamic Light Scattering (DLS) using a Malvern Zetaziser Nano ZS system. The apparent diffusion coefficients of the micelles were obtained from the normalized time correlation function of the scattered electric field, g(1)(τ), using the cumulants analysis. An average value was obtained from repeated measurements for each sample (N = 3).

In the case of `O=S(=O)(O)c1ccc(F)c(-c2c3nc(c(-c4c(F)ccc(S(=O)(=O)O)c4F)c4ccc([nH]4)c(-c4c(F)ccc(S(=O)(=O)O)c4F)c4nc(c(-c5c(F)ccc(S(=O)(=O)O)c5F)c5ccc2[nH]5)C=C4)C=C3)c1F` [F2POH, 5,10,15,20-tetrakis(2,6-difluoro-3-sulfophenyl)porphyrin], the “Absorption λmax, Qx (0,1)” value [1] is reported as 584 nm, the “Absorption λmax, Qx(0,0)” value [1] is reported as 638 nm and the “Absorption λmax, Qy (0,0)” value [1] is reported as 532 nm. For the same compound, the “Absorption λmax, Qy (0,1)” value [1] was 508 nm, the “Absorption λmax, B(0,0)” value ([1]; Soret band) was 420 nm and the “Fluorescence quantum yield ΦF” value [2] was 0.040. The “Singlet oxygen quantum yield ΦΔ” value [3] was 0.71, the logP [4] was -1.74 and the “KSV (Stern-Volmer constant), HSA” value (HSA; HSA fluorescence quenching, PBS, room temperature) was 2.24 10^5M^-1. The “n (number of binding sites), HSA” value (HSA; Scatchard analysis) was 1 and the “Particle Diameter (hydrodynamic diameter)” value [5] was “ca. 115 nm”.
